Data on 18 compounds can be found in US9580437B2, “Triazolopyrimidine compounds and uses thereof” (Novartis AG, priority 2014, dated 2017).

For orientation: IC50 means the concentration at which inhibition is half-maximal.

The test system of test [1] is H3K27 methylation in G401 cell. Kind of test: ELISA (H3K27 methylation) assay in G401 cells. The class given is cell-based, human. The following applies: read-out: (c) IC50 ELISA Qualified. The protocol: (§1) A 6 μL solution of 3 μM of the peptide substrate H3K27Me0 (histone H3[21-44]-biotin) in reaction buffer was added to initiate each reaction. […] ELISA (H3K27 Methylation) Assay
In general terms: An ELISA detects its analyte on a solid surface through an enzyme-linked reagent.

In test [2] the target is wild type PRC2 (wtPRC2) complex (Homo sapiens (Human), UniProt O75530). In words: EED LC-MS assay. The class given is biochemical. The following applies: read-out: (b) IC50 EED LC-MS Qualified. The protocol: as §1
The target in the next test is EED (1-441)-His protein (Homo sapiens (Human), UniProt O75530). In words: EED-H3K27Me3 peptide competition binding assay by AlphaScreen. The settings on record: read-out: (a) IC50 EED Alphascreen binding Qualified. From the text: EED-H3K27Me3 peptide competition binding assay by AlphaScreen (α-screen)
Chain of EED (1-441)-His protein (O75530 whole entry): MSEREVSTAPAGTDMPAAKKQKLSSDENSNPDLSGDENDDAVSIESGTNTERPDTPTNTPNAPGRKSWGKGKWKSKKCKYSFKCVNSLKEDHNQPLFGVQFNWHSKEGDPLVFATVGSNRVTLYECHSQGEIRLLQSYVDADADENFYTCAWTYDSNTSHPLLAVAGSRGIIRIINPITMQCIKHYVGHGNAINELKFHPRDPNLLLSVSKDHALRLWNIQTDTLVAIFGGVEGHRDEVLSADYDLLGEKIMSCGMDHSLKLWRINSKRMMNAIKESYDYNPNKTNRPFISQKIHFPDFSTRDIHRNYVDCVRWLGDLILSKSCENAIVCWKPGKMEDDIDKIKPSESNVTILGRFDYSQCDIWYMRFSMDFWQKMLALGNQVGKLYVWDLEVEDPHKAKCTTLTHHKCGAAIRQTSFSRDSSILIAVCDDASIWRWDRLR

Chain of wild type PRC2 (wtPRC2) complex (O75530 whole entry): as above
Chain of wild type PRC2 (wtPRC2) complex (Q15910 whole entry partner): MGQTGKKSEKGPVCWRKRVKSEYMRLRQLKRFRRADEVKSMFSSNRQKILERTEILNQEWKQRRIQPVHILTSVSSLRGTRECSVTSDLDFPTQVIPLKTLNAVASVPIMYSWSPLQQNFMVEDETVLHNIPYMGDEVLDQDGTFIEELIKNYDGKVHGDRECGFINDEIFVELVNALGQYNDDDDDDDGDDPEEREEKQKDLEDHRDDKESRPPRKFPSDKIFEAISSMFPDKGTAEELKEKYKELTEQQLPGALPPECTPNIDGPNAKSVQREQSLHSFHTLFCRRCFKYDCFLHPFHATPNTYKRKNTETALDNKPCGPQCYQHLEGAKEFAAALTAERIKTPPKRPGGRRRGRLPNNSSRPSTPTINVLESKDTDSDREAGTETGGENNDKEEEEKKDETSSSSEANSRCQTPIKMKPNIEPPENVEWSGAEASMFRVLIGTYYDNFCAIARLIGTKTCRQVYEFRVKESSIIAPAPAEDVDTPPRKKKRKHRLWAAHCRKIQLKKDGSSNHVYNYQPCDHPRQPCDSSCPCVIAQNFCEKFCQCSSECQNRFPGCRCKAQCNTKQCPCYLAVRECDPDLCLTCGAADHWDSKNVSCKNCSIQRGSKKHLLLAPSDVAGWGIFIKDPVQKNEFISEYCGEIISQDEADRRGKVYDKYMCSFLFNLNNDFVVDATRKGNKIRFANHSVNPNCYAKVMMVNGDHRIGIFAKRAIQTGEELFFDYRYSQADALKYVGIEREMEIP
Chain of wild type PRC2 (wtPRC2) complex (Q15022 whole entry partner): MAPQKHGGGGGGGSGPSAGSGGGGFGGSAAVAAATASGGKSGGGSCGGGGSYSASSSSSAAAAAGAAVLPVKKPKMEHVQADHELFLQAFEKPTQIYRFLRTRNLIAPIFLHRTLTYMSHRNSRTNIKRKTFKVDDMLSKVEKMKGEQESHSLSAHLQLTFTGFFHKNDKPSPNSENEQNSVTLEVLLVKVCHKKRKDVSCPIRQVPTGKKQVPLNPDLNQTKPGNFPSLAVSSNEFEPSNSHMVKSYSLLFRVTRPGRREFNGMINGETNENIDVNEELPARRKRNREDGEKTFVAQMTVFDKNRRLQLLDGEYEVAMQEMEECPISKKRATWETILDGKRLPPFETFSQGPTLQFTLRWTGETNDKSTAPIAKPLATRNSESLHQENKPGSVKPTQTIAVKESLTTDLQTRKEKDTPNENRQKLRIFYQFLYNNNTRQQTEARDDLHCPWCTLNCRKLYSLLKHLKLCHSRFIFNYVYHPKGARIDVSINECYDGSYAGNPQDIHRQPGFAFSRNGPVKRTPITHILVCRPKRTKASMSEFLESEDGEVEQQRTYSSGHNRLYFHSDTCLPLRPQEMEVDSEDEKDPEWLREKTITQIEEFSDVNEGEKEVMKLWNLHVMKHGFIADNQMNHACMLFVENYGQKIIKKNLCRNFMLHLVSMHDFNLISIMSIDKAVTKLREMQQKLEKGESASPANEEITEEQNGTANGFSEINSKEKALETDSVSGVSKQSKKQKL

In the case of `Cc1ncccc1-c1cnc(NCc2c(F)ccc3c2CCO3)n2cnnc12` [Example 2, N-((5-fluoro-2,3-dihydrobenzofuran-4-yl)methyl)-8-(2-methylpyridin-3-yl)-[1,2,4]triazolo[4,3-c]pyrimidin-5-amine], the IC50 in test [1] is 0.0026 µM.
`c1cc(CNc2ncc(-c3ccc(N4CCOCC4)nc3)c3nncn23)c2c(c1)OCC2` [Example 69, N-((2,3-dihydrobenzofuran-4-yl)methyl)-8-(6-morpholinopyridin-3-yl)-[1,2,4]triazolo[4,3-c]pyrimidin-5-amine]: the IC50 in test [2] came out at 0.377 µM; at EED (1-441)-His protein, 0.182 µM.
For `O=C(c1ccc(-c2cnc(NCc3cccc4c3CCO4)n3cnnc23)cn1)N1CCOCC1` [Example 68, (5-(5-(((2,3-dihydrobenzofuran-4-yl)methyl)amino)-[1,2,4]triazolo[4,3-c]pyrimidin-8-yl)pyridin-2-yl)(morpholino)methanone], the IC50 amounted to 0.0367 µM in test [2] and 0.0197 µM at EED (1-441)-His protein.
The matching figures for `Fc1ccncc1-c1cnc(NCc2cccc3c2CCO3)n2cnnc12` [Example 85, N-((2,3-dihydrobenzofuran-4-yl)methyl)-8-(4-fluoropyridin-3-yl)-[1,2,4]triazolo[4,3-c]pyrimidin-5-amine]: 0.026 µM and 0.0083 µM.
For `Cc1cc(C2CC2)ncc1-c1cnc(NCc2c(F)ccc3c2CCO3)n2cnnc12` [Example 173, 8-(6-cyclopropyl-4-methylpyridin-3-yl)-N-((5-fluoro-2,3-dihydrobenzofuran-4-yl)methyl)-[1,2,4]triazolo[4,3-c]pyrimidin-5-amine], the values for the IC50 (in test [2]; on EED (1-441)-His protein) were 0.0077 µM and 0.0075 µM, respectively.
In the case of `N#Cc1ccc(-c2cnc(NCc3c(F)ccc4c3CCO4)n3cnnc23)cn1` [Example 93, 5-(5-(((5-fluoro-2,3-dihydrobenzofuran-4-yl)methyl)amino)-[1,2,4]triazolo[4,3-c]pyrimidin-8-yl)picolinonitrile], the IC50 in test [2] was determined as 0.0125 µM; on EED (1-441)-His protein, 0.0079 µM.
The matching figures for `COc1cc(-c2cnc(NCc3c(F)ccc4c3CCO4)n3cnnc23)ccn1` [Example 145, N-((5-fluoro-2,3-dihydrobenzofuran-4-yl)methyl)-8-(2-methoxypyridin-4-yl)-[1,2,4]triazolo[4,3-c]pyrimidin-5-amine]: 0.0118 µM and 0.0024 µM.
Take `CC(c1ccc(-c2cnc(NCc3cccc4c3CCO4)n3cnnc23)cc1)N1CCCC1` (centres unmarked) [Example 14, N-((2,3-dihydrobenzofuran-4-yl)methyl)-8-(4-(1-(pyrrolidin-1-yl)ethyl)phenyl)-[1,2,4]triazolo[4,3-c]pyrimidin-5-amine]: the results for the concentration for half-maximal inhibition (IC50) (in test [2]; at EED (1-441)-His protein) were 0.0128 µM and 0.0078 µM, respectively.
For `Fc1ccc2c(c1CNc1ncc(-c3cnccn3)c3nncn13)CCO2` [Example 205, N-((5-fluoro-2,3-dihydrobenzofuran-4-yl)methyl)-8-(pyrazin-2-yl)-[1,2,4]triazolo[4,3-c]pyrimidin-5-amine] the same measures were 0.0082 µM and 0.0073 µM.
The matching figures for `Fc1ccc2c(c1CNc1ncc(-c3ccnn3C3CC3)c3nncn13)CCO2` [Example 192, 8-(1-cyclopropyl-1H-pyrazol-5-yl)-N-((5-fluoro-2,3-dihydrobenzofuran-4-yl)methyl)-[1,2,4]triazolo[4,3-c]pyrimidin-5-amine]: 0.0126 µM and 0.0035 µM.
The matching figures for `Cn1cc(-c2cnc(NCc3c(F)ccc4c3CCO4)n3cnnc23)cn1` [Example 147, N-((5-fluoro-2,3-dihydrobenzofuran-4-yl)methyl)-8-(1-methyl-1H-pyrazol-4-yl)-[1,2,4]triazolo[4,3-c]pyrimidin-5-amine]: 0.0159 µM and 0.0036 µM.
For the compound `Cc1c(-c2cnc(NCc3c(F)ccc4c3CCO4)n3cnnc23)ccnc1C(F)F` [Example 181, 8-(2-(difluoromethyl)-3-methylpyridin-4-yl)-N-((5-fluoro-2,3-dihydrobenzofuran-4-yl)methyl)-[1,2,4]triazolo[4,3-c]pyrimidin-5-amine], the half-inhibitory concentration (IC50) amounted to 0.006 µM in test [2] and 0.0026 µM on EED (1-441)-His protein.
The matching figures for `CNC(=O)c1ccc(-c2cnc(NCc3cccc4c3CCO4)n3cnnc23)cn1` [Example 79, 5-(5-(((2,3-dihydrobenzofuran-4-yl)methyl)amino)-[1,2,4]triazolo[4,3-c]pyrimidin-8-yl)-N-methylpicolinamide]: 0.103 µM and 0.0575 µM.
Turning to `Cc1ccc(-c2cnc(NCc3c(F)ccc4c3CCO4)n3cnnc23)c(C(F)F)n1` [Example 201, 8-(2-(difluoromethyl)-6-methylpyridin-3-yl)-N-((5-fluoro-2,3-dihydrobenzofuran-4-yl)methyl)-[1,2,4]triazolo[4,3-c]pyrimidin-5-amine], the results for the IC50 (in test [2]; at EED (1-441)-His protein) were 0.0073 µM and 0.0059 µM, respectively.
`CN1CCN(c2ccc(-c3cnc(NCc4cccc5occc45)n4cnnc34)cc2)CC1` [Example 209, N-(benzofuran-4-ylmethyl)-8-(4-(4-methylpiperazin-1-yl)phenyl)-[1,2,4]triazolo[4,3-c]pyrimidin-5-amine]: the results for the IC50 (in test [2]; at EED (1-441)-His protein) were 0.029 µM and 0.0369 µM, respectively.
Take `Fc1ccc2c(c1CNc1ncc(-n3ccnc3)c3nncn13)CCO2` [Example 240, N-((5-fluoro-2,3-dihydrobenzofuran-4-yl)methyl)-8-(1H-imidazol-1-yl)-[1,2,4]triazolo[4,3-c]pyrimidin-5-amine]: the IC50 in test [2] amounted to 0.0143 µM; on EED (1-441)-His protein, 0.0049 µM.
The matching figures for `Cc1ncc(-c2cnc(NCc3cccc4c3CCO4)n3cnnc23)cn1` [Example 60, N-((2,3-dihydrobenzofuran-4-yl)methyl)-8-(2-methylpyrimidin-5-yl)-[1,2,4]triazolo[4,3-c]pyrimidin-5-amine]: 0.047 µM and 0.0195 µM.
For `Fc1ccc2c(c1CNc1ncc(-c3cccnc3)c3nncn13)CCO2` [Example 44, N-((5-fluoro-2,3-dihydrobenzofuran-4-yl)methyl)-8-(pyridin-3-yl)-[1,2,4]triazolo[4,3-c]pyrimidin-5-amine] the same measures were 0.0192 µM and 0.0128 µM.
